The subject of the experiment is insects in wheat. Briefly: Monitoring efficiency of Deltamethrin pest control treatment in wheat with the TV1061 sensor. In kind it is in vivo. The conditions noted are these: FIG. 13. As to the method:
Reference is now made to FIG. 13 showing monitoring efficiency of Deltamethrin pest control treatment in wheat. To determinate system capability to test the efficiency of the pest control treatments, infected and clean wheat were treated with Deltamethrin. Then, sensor (with TV1061 strain) was placed into the treated chambers. […] Deltamethrin is not effective against eggs inside the wheat. Therefore insects inside wheat (in eggs) will be destroyed at the time when they will hatch and walk out. […] Then decreasing in the sensor responses to the background levels may be explained by killing these insects by Deltamethrin residues on the wheat.

This note sets out measurements from US20210302318A1, “MEANS AND METHOD FOR THE REAL-TIME ANALYSIS OF HARVESTED CROPS” (THE STATE OF ISRAEL, MINISTRY OF AGRICULTURE & RURAL …, priority 2018, published 2021).

For the compound `CC1(C)[C@H](C(=O)O[C@H](C#N)c2cccc(Oc3ccccc3)c2)[C@@H]1C=C(Br)Br` [Deltamethrin], the “effectiveness against eggs inside the wheat” value (eggs inside the wheat, sensor response increased on the third day after sanitization) is recorded as “not effective”. Also, where the note is “infected and clean wheat treated, inferred from similar TV1061 sensor responses in infected and uninfected sample”, the “pest control efficiency (insects in infected wheat)” value is listed as “all insects were destroyed”.
